{"source": "patent US8063098B2", "about": "“GlyT1 receptor antagonists” (Hoffmann-La Roche Inc., priority 2008, dated 2011)"}
{"target": "T1, mGlyT-1b (Mus musculus, UniProt P28571)", "T1 construct": "host or cells: Flp-in-CHO", "T1 sequence (P28571 1-651 isoform P28571-2)": "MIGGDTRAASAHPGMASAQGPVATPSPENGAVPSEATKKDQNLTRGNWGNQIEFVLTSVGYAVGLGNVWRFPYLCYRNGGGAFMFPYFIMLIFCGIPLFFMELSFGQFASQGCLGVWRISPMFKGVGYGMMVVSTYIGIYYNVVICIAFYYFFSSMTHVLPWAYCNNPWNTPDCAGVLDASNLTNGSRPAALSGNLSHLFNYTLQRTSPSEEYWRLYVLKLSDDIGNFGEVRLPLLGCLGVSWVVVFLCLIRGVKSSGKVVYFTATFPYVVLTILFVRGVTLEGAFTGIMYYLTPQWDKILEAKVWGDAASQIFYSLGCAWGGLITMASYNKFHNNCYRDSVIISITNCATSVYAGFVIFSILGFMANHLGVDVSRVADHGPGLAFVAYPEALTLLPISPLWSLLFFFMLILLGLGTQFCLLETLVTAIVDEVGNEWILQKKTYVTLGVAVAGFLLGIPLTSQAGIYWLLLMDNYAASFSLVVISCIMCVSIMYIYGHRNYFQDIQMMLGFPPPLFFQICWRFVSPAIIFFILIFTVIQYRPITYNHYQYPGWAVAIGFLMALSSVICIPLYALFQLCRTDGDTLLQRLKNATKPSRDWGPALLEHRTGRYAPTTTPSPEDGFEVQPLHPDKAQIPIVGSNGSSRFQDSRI", "assay": "Glycine uptake inhibition assay (mGlyT-1b), [3H]-glycine uptake in Flp-in-CHO cells", "format": "cell-based", "details": "Flp-in-CHO cells stably transfected with mGlyT1b cDNA, 20 min at 22° C. preincubation", "method": "Nutrient mixture F-12 (Gibco Life-technologies), fetal bovine serum (FBS) 5%, (Gibco life technologies), Penicillin/Streptomycin 1% (Gibco life technologies), Hygromycin 0.6 mg/ml (Gibco life technologies), Glutamine 1 mM Gibco life technologies) • Uptake buffer (UB): 150 mM NaCl, 10 mM Hepes-Tris, pH 7.4, […], 2.5 mM KCl, 2.5 mM MgSO4, 10 mM (+) D-glucose. • Flp-in™-CHO (Invitrogen Cat n° R758-07) cells stably transfected with mGlyT1b cDNA. Glycine Uptake Inhibition Assay (mGlyT-1b)\nOn day 1 mammalian cells, (Flp-in™-CHO), transfected with mGlyT-1b cDNA, were plated at the density of 40,000 cells/well in complete F-12 medium, without hygromycin in 96-well culture plates. On day 2, the medium was aspirated and the cells were washed twice with uptake buffer (UB). The cells were then incubated for 20 min at 22° C. with either (i) no potential competitor, (ii) 10 mM non-radioactive glycine, (iii) a concentration of a potential inhibitor. A range of concentrations of the potential inhibitor was used to generate data for calculating the concentration of inhibitor resulting in 50% of the effect (e.g. IC50, the concentration of the competitor inhibiting glycine uptake of 50%). A solution was then immediately added containing [^3H]-glycine 60 nM (11-16 Ci/mmol) and 25 μM non-radioactive glycine. The plates were incubated with gentle shaking and the reaction was stopped by aspiration of the mixture and washing (three times) with ice-cold UB. The cells were lysed with scintillation liquid, shaken 3 hours and the radioactivity in the cells was counted using a scintillation counter.", "units": {"IC50": "µM"}}
{"molecule": "COc1cc(C(F)(F)F)cc(SC)c1C(=O)NC(c1ccccc1)C1(N2C3CCC2COC3)CCC1", "note": "(racemic) [Example 71, (rac)-2-Methoxy-6-methylsulfanyl-N-{[1-(3-oxa-8-aza-bicyclo[3.2.1]oct-8-yl)-cyclobutyl]-phenyl-methyl}-4-trifluoromethyl-benzamide]", "IC50": 0.0521}
{"molecule": "CSc1cc(C(F)(F)F)cc(C(F)(F)F)c1C(=O)NC(c1ccccc1)C1(N2CCCC2)CCC1", "note": "(single isomer, unassigned; (+)) [Example 30, (+)-2-Methylsulfanyl-N-[phenyl-(1-pyrrolidin-1-yl-cyclobutyl)-methyl]-4,6-bis-trifluoromethyl-benzamide]", "IC50": 0.047}
{"molecule": "COc1cc(C(F)(F)F)cc(SC)c1C(=O)NC(c1ccccc1)C1(N2CCCC2)CCC1", "note": "(single isomer, unassigned; (+)) [Example 32, (+)-2-Methoxy-6-methylsulfanyl-N-[phenyl-(1-pyrrolidin-1-yl-cyclobutyl)-methyl]-4-trifluoromethyl-benzamide]", "IC50": 0.0225}
{"molecule": "COc1cc(C(F)(F)F)cc(SC)c1C(=O)NC(c1ccccc1)C1(N2CCCC2)CCC1", "note": "(single isomer, unassigned; (+)) [Example 33, (+)-2-Methoxy-6-methylsufanyl-N-[phenyl-(1-pyrrolidin-1-yl-cyclobutyl)-methyl]-4-trifluoromethyl-benzamide]", "IC50": 0.00847}
{"molecule": "CSc1cc(C(F)(F)F)ccc1C(=O)NC(c1ccccc1)C1(N2CCCC2)CCC1", "note": "(single isomer, unassigned; (+)) [Example 35, (+)-2-Methylsulfanyl-N-[phenyl-(1-pyrrolidin-1-yl-cyclobutyl)-methyl]-4-trifluoromethyl-benzamide]", "IC50": 0.0098}
{"molecule": "CSc1cc(C(F)(F)F)cc(C(F)(F)F)c1C(=O)NC(c1ccccc1)C1(N2CCCC2)CC1", "note": "(single isomer, unassigned; (-)) [Example 29, (−)-2-Methylsulfanyl-N-[phenyl-(1-pyrrolidin-1-yl-cyclopropyl)-methyl]-4,6-bis-trifluoromethyl-benzamide]", "IC50": 0.0509}
{"molecule": "CSc1cc(C(F)(F)F)cc(C(F)(F)F)c1C(=O)NC(c1ccccc1)C1(N2CCCC2)CCC1", "note": "(single isomer, unassigned; (-)) [Example 31, (−)-2-Methylsulfanyl-N-[phenyl-(1-pyrrolidin-1-yl-cyclobutyl)-methyl]-4,6-bis-trifluoromethyl-benzamide]", "IC50": 0.0181}
{"molecule": "CSc1cc(C(F)(F)F)cc(C(F)(F)F)c1C(=O)NC(c1ccccc1)C1(N2CCCC2)CC1", "note": "(stereo not shown) [Example 6, 2-Methylsulfanyl-N-[phenyl-(1-pyrrolidin-1-yl-cyclopropyl)-methyl]-4,6-bis-trifluoromethyl-benzamide]", "IC50": 0.0683}
{"molecule": "CSc1cc(C(F)(F)F)cc(C(F)(F)F)c1C(=O)NC(c1ccccc1)C1(N2CCCC2)CCC1", "note": "(stereo not shown) [Example 9, 2-Methylsulfanyl-N-[phenyl-(1-pyrrolidin-1-yl-cyclobutyl)-methyl]-4,6-bis-trifluoromethyl-benzamide]", "IC50": 0.0295}
{"molecule": "COc1cc(C(F)(F)F)cc(SC)c1C(=O)NC(c1ccccc1)C1(N2CCCC2)CC1", "note": "(stereo not shown) [Example 10, 2-Methoxy-6-methylsulfanyl-N-[phenyl-(1-pyrrolidin-1-yl-cyclopropyl)-methyl]-4-trifluoromethyl-benzamide]", "IC50": 0.0253}
{"molecule": "COc1cc(F)cc(SC)c1C(=O)NC(c1ccccc1)C1(N2CCCC2)CCC1", "note": "(stereo not shown) [Example 11, 4-Fluoro-2-Methoxy-6-methylsulfanyl-N-[phenyl-(1-pyrrolidin-1-yl-cyclobutyl)-methyl]-benzamide]", "IC50": 0.0122}
{"molecule": "COc1cc(C(F)(F)F)cc(SC)c1C(=O)NC(c1ccccc1)C1(N2CCCC2)CCC1", "note": "(stereo not shown) [Example 12, 2-Methoxy-6-methylsulfanyl-N-[phenyl-(1-pyrrolidin-1-yl-cyclobutyl)-methyl]-4-trifluoromethyl-benzamide]", "IC50": 0.0112}
{"molecule": "CSc1cccc(C(F)(F)F)c1C(=O)NC(c1ccccc1)C1(N2CCCC2)CCC1", "note": "(stereo not shown) [Example 13, 2-Methylsulfanyl-N-[phenyl-(1-pyrrolidin-1-yl-cyclobutyl)-methyl]-6-trifluoromethyl-benzamide]", "IC50": 0.034}
{"molecule": "COc1cc(C(F)(F)F)cc(C(F)(F)F)c1C(=O)NC(c1ccccc1)C1(N2CCCC2)CCC1", "note": "(stereo not shown) [Example 14, 2-Methoxy-N-[phenyl-(1-pyrrolidin-1-yl-cyclobutyl)-methyl]-4,6-bis-trifluoromethyl-benzamide]", "IC50": 0.0455}
{"molecule": "O=C(NC(c1ccccc1)C1(N2CCCC2)CCC1)c1ccc(C(F)(F)F)cc1C(F)(F)F", "note": "(stereo not shown) [Example 15, N-[Phenyl-(1-pyrrolidin-1-yl-cyclobutyl)-methyl]-2,4-bis-trifluoromethyl-benzamide]", "IC50": 0.0312}
{"molecule": "CSc1cc(C(F)(F)F)ccc1C(=O)NC(c1ccccc1)C1(N2CCCC2)CCC1", "note": "(stereo not shown) [Example 16, 2-Methylsulfanyl-N-[phenyl-(1-pyrrolidin-1-yl-cyclobutyl)-methyl]-4-trifluoromethyl-benzamide]", "IC50": 0.0134}
{"molecule": "COc1cc(C(F)(F)F)ccc1C(=O)NC(c1ccccc1)C1(N2CCCC2)CCC1", "note": "(stereo not shown) [Example 17, 2-Methoxy-N-[phenyl-(1-pyrrolidin-1-yl-cyclobutyl)-methyl]-4-trifluoromethyl-benzamide]", "IC50": 0.0368}
{"molecule": "CSc1cc(C(F)(F)F)ccc1C(=O)NC(c1ccc(F)cc1)C1(N2CCCC2)CCC1", "note": "(stereo not shown) [Example 24, N-[(4-Fluoro-phenyl)-(1-pyrrolidin-1-yl-cyclobutyl)-methyl]-2-methylsulfanyl-4-trifluoromethyl-benzamide]", "IC50": 0.02}
{"molecule": "CSc1cc(C(F)(F)F)ccc1C(=O)NC(c1ccc(Cl)cc1)C1(N2CCCC2)CCC1", "note": "(stereo not shown) [Example 36, N-[(4-Chloro-phenyl)-(1-pyrrolidin-1-yl-cyclobutyl)-methyl]-methylsulfanyl-4-trifluoromethyl-benzamide]", "IC50": 0.0597}
{"molecule": "CCc1cc(C(F)(F)F)cc(C(F)(F)F)c1C(=O)NC(c1ccccc1)C1(N2CCCC2)CCC1", "note": "(stereo not shown) [Example 37]", "IC50": 0.0398}
{"molecule": "COc1cc(C(F)(F)F)cc(SC)c1C(=O)NC(c1ccc(F)cc1)C1(N2CCCC2)CCC1", "note": "(stereo not shown) [Example 38, N-[(4-Fluoro-phenyl)-(1-pyrrolidin-1-yl-cyclobutyl)-methyl]-2-methoxy-6-methylsulfanyl-4-trifluoromethyl-benzamide]", "IC50": 0.0175}
{"molecule": "COc1cc(C(F)(F)F)cc(SC)c1C(=O)NC(c1ccc(Cl)cc1)C1(N2CCCC2)CCC1", "note": "(stereo not shown) [Example 39, N-[(4-Chloro-phenyl)-(1-pyrrolidin-1-yl-cyclobutyl)-methyl]-2-methoxy-6-methylsulfanyl-4-trifluoromethyl-benzamide]", "IC50": 0.0211}
{"molecule": "CSc1cc(C(F)(F)F)ccc1C(=O)NC(c1cc(F)cc(F)c1)C1(N2CCCC2)CCC1", "note": "(stereo not shown) [Example 40, N-[(3,5-Difluoro-phenyl)-(1-pyrrolidin-1-yl-cyclobutyl)-methyl]-2-methylsulfanyl-4-trifluoromethyl-benzamide]", "IC50": 0.0322}
{"molecule": "Cc1cc(C(F)(F)F)ccc1C(=O)NC(c1ccccc1)C1(N2CCCC2)CCC1", "note": "(stereo not shown) [Example 41, 2-Methyl-N-[phenyl-(1-pyrrolidin-1-yl-cyclobutyl)-methyl]-4-trifluoromethyl-benzamide]", "IC50": 0.0148}
{"molecule": "O=C(NC(c1ccccc1)C1(N2CCCC2)CCC1)c1ccc(Cl)cc1Cl", "note": "(stereo not shown) [Example 43, 2,4-Dichloro-N-[phenyl-(1-pyrrolidin-1-yl-cyclobutyl)-methyl]-benzamide]", "IC50": 0.0669}
{"molecule": "O=C(NC(c1ccccc1)C1(N2CCCC2)CCC1)c1ccccc1C(F)(F)F", "note": "(stereo not shown) [Example 44, N-[Phenyl-(1-pyrrolidin-1-yl-cyclobutyl)-methyl]-2-trifluoromethyl-benzamide]", "IC50": 0.0951}
{"molecule": "COc1cc(Cl)ccc1C(=O)NC(c1ccccc1)C1(N2CCCC2)CCC1", "note": "(stereo not shown) [Example 47, 4-Chloro-2-methoxy-N-[phenyl-(1-pyrrolidin-1-yl-cyclobutyl)-methyl]-benzamide]", "IC50": 0.0724}
{"molecule": "CSc1cc(C(F)(F)F)ccc1C(=O)NC(c1ccccc1)C1(N2CCCCC2)CCC1", "note": "(stereo not shown) [Example 48, 2-Methylsulfanyl-N-[phenyl-(1-piperidin-1-yl-cyclobutyl)-methyl]-4-trifluoromethyl-benzamide]", "IC50": 0.0275}
